Reference: patent US10766940B2, “Brain penetrant amylin receptor based peptides for Alzheimer's disease” (The Governors of the University of Alberta, priority 2016, dated 2020)
Residues, ends and D or L forms follow the SMILES beside them. No end group written: not given here.

Tests used:
Assay type in all cases: cell-based
[1] = tested on: human fetal neurons (HFNs); test: Aβ1-42 cytotoxicity (MTT, live/dead) in human fetal neurons; conditions: for block of Aβ1-42 triggered cell death, human fetal neuronal cells (MTT): Aβ1-42 20 μM
Description: (§1) b) To investigate the antagonistic activity of peptides against Aβ cytotoxicity in vitro, HFNs and N2a cells were used. Cells were seeded to 5000 cells/well in a 96-well plate in MEM-10% FBS and DMEM/OptiMEM-5% FBS for overnight. […] At the end of treatment, 20 μl of 5 mg/ml methylthiazolyldiphenyl-tetrazolium bromide (MTT) was added to each well, and incubated at 37° C. for 3 hours. Medium was removed, 100 μl of MTT solvent (isopropanol with 4 mM HCl) added to each well, and the plates were incubated for 30 minutes at room temperature on a rotating shaker. Plates were analyzed on a microplate reader at a 562-nm wavelength. The Live/Dead assay kit was purchased from Invitrogen and assay followed the production instruction. The assayed cells were fixed with 4% paraformaldehyde in PBS and photo imaged with Axio Zeiss fluorescent microscopy. The dead cells were further counted using ImageJ software.
(§2) f) To investigate the antagonistic activity of peptide fragments against Aβ cytotoxicity in vitro, (human fetal neurons) HFNs, human neuroblastoma, SK-N-SH cells and N2a mouse neuroblastoma cells were used. Cells were seeded to 5000 cells/well in a 96-well plate in MEM-10% FBS and DMEM/OptiMEM-5% FBS for overnight. Cells in culture media were preincubated for 8 h with or without AC253 or fragments R5, R14, R11, and followed by treatment with Aβ1-42 for 24 h. At the end of treatment, 20 μl of 5 mg/ml methylthiazolyldiphenyl-tetrazolium bromide (MTT) was added to each well, and incubated at 37° C. for 3 h. Medium was removed, 100 μl of MTT solvent (isopropanol with 4 mM HCl) added to each well, and the plates were incubated for 30 min at room temperature on a rotating shaker. Plates were analyzed on a microplate reader at a 562-nm wavelength.

[2] = tested on: N2a mouse neuroblastoma cells; test: Aβ1-42 cytotoxicity (MTT) in N2a cells; conditions: for block of Aβ1-42 triggered cell death, N2a (MTT): Aβ1-42 20 μM
Description: as §1, §2

[3] = biological target: T1, AMY3 receptor (HEK293-AMY3 cells) (Homo sapiens, UniProt O60896+P30988); test: Flow cytometry binding and uptake of Cy5 labeled peptides in AMY3-HEK cells; conditions: for flow cytometry binding to HEK293-AMY3 cells: 10 μM
T1 construct: expressed in transfected cells; AMY3-293 / AMY3-HEK)
T1 sequence (P30988 25-474): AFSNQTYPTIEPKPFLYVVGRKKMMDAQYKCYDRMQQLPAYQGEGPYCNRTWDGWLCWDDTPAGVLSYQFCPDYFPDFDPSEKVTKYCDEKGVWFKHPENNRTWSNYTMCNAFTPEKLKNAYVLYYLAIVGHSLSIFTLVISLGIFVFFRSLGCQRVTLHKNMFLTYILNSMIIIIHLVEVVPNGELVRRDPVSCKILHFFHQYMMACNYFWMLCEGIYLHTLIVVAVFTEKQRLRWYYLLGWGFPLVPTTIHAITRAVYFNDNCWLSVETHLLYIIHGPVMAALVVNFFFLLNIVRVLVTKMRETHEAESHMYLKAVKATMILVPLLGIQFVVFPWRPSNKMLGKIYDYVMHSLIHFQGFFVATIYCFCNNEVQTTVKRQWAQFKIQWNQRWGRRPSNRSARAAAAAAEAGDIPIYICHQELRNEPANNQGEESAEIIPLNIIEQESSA
T1 sequence (O60896 24-148 partner): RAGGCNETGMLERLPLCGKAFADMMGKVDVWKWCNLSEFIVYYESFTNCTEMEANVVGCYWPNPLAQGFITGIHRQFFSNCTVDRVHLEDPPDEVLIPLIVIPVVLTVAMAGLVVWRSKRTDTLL
Description: d) For flow cytometry studies, AMY3-293 cells were used to determine cell binding and uptake and binding of Cy5-AC253, and Cy5-cAC253 peptides. Cell were plated at a density of 1.5×10^5 cells/well and cultured overnight in 12-well plates at 37° C. Cy5 labelled peptides (5 μM) were added and incubated for 1 hour at 37° C. in serum free media. The culture media was discarded, and cell monolayers were washed with PBS containing 2 mM EDTA and 0.5% BSA adjusted to pH 7.4 at 37° C. Cells were washed again with cold buffer and incubated with 0.25% trypsin to remove cell surface-associated fluorophores. Cells were dispersed in FACS solution (10% FBS in PBS) and analyzed using a FACSCanto II flow cytometer (BD Biosciences, USA) selecting a detection window between 720 and 840 nm. Fluorescence histograms and dot plots were generated using the data were processed with FLOWJO software (Tree Star, Inc, USA). At least 10,000 gated events per sample were analyzed. The experiment was repeated with different peptide concentration ranging from 0.5-10 μM, and mean fluorescence intensity of peptides was extrapolated. To further study the cell uptake mechanism, cells were preincubated with cytochalasin D (cytoD, […]) for 30 minutes, and the experiment was repeated as above. To determine the energy dependent mechanism, cell uptake experiment was undertaken at 4° C., and for the competition experiment, cells was pre-incubated with amylin (30 μM) for 30 minutes, and the experiment was repeated.

Compound | block of Aβ1-42 triggered cell death, human fetal neuronal cells (MTT) [1] | block of Aβ1-42 triggered cell death, N2a (MTT) [2] | flow cytometry binding to HEK293-AMY3 cells ([3]; 37° C., 60 min) | attenuation of Aβ1-42 induced cell death, HFNs ([1]; Aβ1-42 10 μM, peptide 10 μM pre-applied, MTT and live-dead assays) | attenuation of Aβ1-42 induced cell death, N2a ([2]; Aβ1-42 10 μM, peptide 10 μM pre-applied, MTT) | mean fluorescence intensity at 4° C. ([3]; 4° C.) | mean fluorescence intensity, binding and uptake ([3]; Cy5 labeled peptide 5 μM, 60 min, 37° C.) | mean fluorescence intensity after pre-incubation with hAmylin ([3]; hAmylin (30 μM) pre-incubation 30 minutes) | mean fluorescence intensity in the presence of cytoD ([3]; preincubation with cytochalasin D)
LGRLSQELHRLQTY (LGRLSQELHRLQTY-NH2) [R14] | block the effect of Aβ1-42 | block the effect of Aβ1-42 | selective and significant specific binding | – | – | – | – | – | –
CC(C)C[C@H](NC(=O)[C@H](CCCNC(=N)N)NC(=O)CNC(=O)[C@@H](N)CC(C)C)C(=O)N[C@@H](CO)C(=O)N[C@@H](CCC(N)=O)C(=O)N[C@@H](CCC(=O)O)C(=O)N[C@@H](CC(C)C)C(=O)N[C@@H](Cc1c[nH]cn1)C(=O)N[C@@H](CCCNC(=N)N)C(=O)N[C@@H](CC(C)C)C(=O)N[C@@H](CCC(N)=O)C(=O)N[C@H](C(=O)N[C@@H](Cc1ccc(O)cc1)C(=O)N1CCC[C@H]1C(=O)N[C@@H](CCCNC(=N)N)C(=O)N[C@H](C(=O)N[C@@H](CC(N)=O)C(=O)N[C@H](C(=O)NCC(=O)N[C@@H](CO)C(=O)N[C@@H](CC(N)=O)C(=O)N[C@H](C(=O)N[C@@H](Cc1ccc(O)cc1)C(N)=O)[C@@H](C)O)[C@@H](C)O)[C@@H](C)O)[C@@H](C)O [AC253] | – | – | – | attenuated | attenuated | 400±75 | 1200 | 500±100 | 450±50
CC(C)C[C@H](NC(=O)[C@H](CCC(=O)O)NC(=O)[C@H](CCC(N)=O)NC(=O)[C@@H](N)CO)C(=O)N[C@@H](Cc1c[nH]cn1)C(=O)N[C@@H](CCCNC(=N)N)C(=O)N[C@@H](CC(C)C)C(=O)N[C@@H](CCC(N)=O)C(=O)N[C@H](C(=O)N[C@@H](Cc1ccc(O)cc1)C(=O)N1CCC[C@H]1C(=O)N[C@@H](CCCNC(=N)N)C(N)=O)[C@@H](C)O [R5] (H-SQELHRLQTYPR-NH2; N-terminus assumed) | block the effect of Aβ1-42 | block the effect of Aβ1-42 | selective and significant specific binding | – | – | – | – | – | –
